In US12258389B2, “Methods and compositions for inhibition of EGF/EGFR pathway in combination with tyrosine kinase inhibitors” (In3Bio Ltd., priority 2015, dated 2025):
Where two headings read alike, the source gives them in different places.

What was measured:
PC9 cells = experiment: Sensitivity of parental PC9 cells to TKIs; type: cell-based, human
From the text: (§1) In the conduct of this study PC9-derived cell lines that are resistant to TKIs were utilized. […] They represent a model for the EGFR Mutated segment of the NSCLC patient population receiving first-line TKI treatment.
(§2) As described above, the PC9 cell line carries a 15 bp deletion in exon 19 of EGFR, making this cell line sensitive to TKI's. It represents a model for the EGFR Mutated segment of the NSCLC patient population receiving TKI treatment. As a part of this effort, PC9-derived cell lines resistant to TKIs were developed.

pSTAT-3 [1] = experiment: Western blot, phosphorylated STAT3 normalised to total STAT3, PC9 cells; type: cell-based, human
Procedure: (§3) Experiment 1: In a typical standard experiment, five T-75 flasks of the cell line under study were cultured to approximately 70% confluence, washed twice with PBS and grown o/n in serum-free medium. The serum-starved cells were then washed again and treated as follows:
(§4) Treatment was for about 15 minutes.
(§5) Experiment 2: In a second experiment anti-EGF was tested only at 1 to 2 dilution. […] Treatment was prolonged to about 2 hours in this experiment.
(§6) Both EGF and anti-EGF antibodies, which used in this project were derived from an immunization study in monkeys that received 4 immunizations of the rEGF-rP64k conjugate CIMAvax-EGF vaccine formulated with Montanide adjuvant. The vaccine and resulting anti-EGF antibodies were provided by Bioven (Europe) Ltd, Cruikshank Building North, Aberdeen Biotechnology, Craibstone Aberdeen, U.K. Scotland. Antibodies for Western blotting were purchased from Santa Cruz Biotechnologies (Palo Alto, CA).
(§7) Experiment 3: In a third experiment anti-EGF was tested only at 1 to 2 dilution. […] Treatment was prolonged to about 2 hours in this experiment. […] Both EGF and anti-EGF were provided by Bioven. Antibodies for Western blotting were purchased from Santa Cruz Biotechnologies (Palo Alto, CA).
(§8) Subsequently, three kind of experiments were performed:
(§9) C. Non-Standard Conditions: In experiments “under non-standard conditions”, PC9 (4 flasks) cells were not submitted to serum starvation and activation with fetal bovine serum instead of human EGF was employed. They were washed with PBS (×2), drugs were added in medium containing 10% FBS and incubated for 2 hours.

pSTAT-3 [2] = experiment: Western blot, phosphorylated STAT3, PC9-GR4 (T790M positive) cells; type: cell-based, human; details: AZD9291 0.2 μM, Ab1, Ctrl = 100
From the text: as §2
(§10) In 5-day experiments, PC9 cells were not submitted to serum starvation but cultured with human serum.

p-ERK1/2 [3] = experiment: Western blot, phosphorylated ERK1/2 normalised to total ERK1/2, PC9 cells; type: cell-based, human
Procedure: as §3, §4, §5, §6, §7, §8, §9

p-EGFR [4] = experiment: Western blot, phosphorylated EGFR normalised to total EGFR, PC9 cells; type: cell-based, human
Procedure: as §3, §4, §5, §6, §7, §8
C. […]

p-EGFR [5] = experiment: Western blot, phosphorylated EGFR, PC9-GR4 (T790M positive) cells; type: cell-based, human; details: AZD9291 0.2 μM, Ab1, Ctrl = 100
From the text: as §2, §10

PC9-GR1 and GR4 = experiment: Sensitivity of T790M PC9-derived lines; type: cell-based, human
From the text: as §1, with “treatment. […]. These two cell lines (PC9-GR1 and GR4) are sensitive to the new generation EGFR TKI developed by Astra Zeneca (AZD9291) that can also bind to the T790M EGFR mutated protein.” for “treatment.”
as §2, with “developed. […] […]. These two cell lines (PC9-GR1 and GR4) are sensitive to the new generation EGFR TKI developed by Astra Zeneca (AZD9291) that can also bind to the T790M EGFR mutated protein.” for “developed.”

p-Akt [6] = experiment: Western blot, phosphorylated Akt, PC9-GR4 (T790M positive) cells; type: cell-based, human; details: AZD9291 0.2 μM, Ab1, Ctrl = 100
From the text: as §2, §10

p-ERK1/2 [7] = experiment: Western blot, phosphorylated ERK1/2, PC9-GR4 (T790M positive) cells; type: cell-based, human; details: AZD9291 0.2 μM, Ab1, Ctrl = 100
From the text: as §2, §10

p-Akt [8] = experiment: Western blot, phosphorylated Akt normalised to total Akt, PC9 cells; type: cell-based, human
Procedure: as §3, §4, §5, §6, §7, §8, §9

PC9-ER and GR1 to GR5 = experiment: cells; type: cell-based; details: Homo sapiens, PC-9/ER; PC9-ER and GR1 to GR5 resistant lines
From the text: as §1, §2

Notch3 truncated = experiment: Western blot, truncated (cleaved) Notch3, PC9 cells; type: cell-based, human; details: PC9, 24 h, gefitinib 0.5 μM, Ab1; Ctrl = 100
Procedure: as §10
(§11) A preliminary analysis was performed to test some of them: Notch3 cleaved (active form of Notch3), phosphor-YAP, Bmi1 and Hes1 (related to stem cells) and AXL (related to EMT transition). Also, PARP was investigated to determine if the antibodies induce apoptosis. Extracts of the PC9 cell line obtained in previous experiments were used. […] A not-so-significant down-regulation of Bmi1 was also observed.

Bmi1 = experiment: Western blot, Bmi1 level, PC9 cells; type: cell-based, human; details: PC9, 24 h, gefitinib 0.5 μM, Ab1; Ctrl = 100
Procedure: as §10, §11

pYAP = experiment: Western blot, phospho-YAP, PC9 cells; type: cell-based, human; details: PC9, 24 h, gefitinib 0.5 μM, Ab1; Ctrl = 100
Procedure: as §10, §11

HES1 = experiment: Western blot, Hes1 level, PC9 cells; type: cell-based, human; details: PC9, 24 h, gefitinib 0.5 μM, Ab1; Ctrl = 100
Procedure: as §10, §11

PARP = experiment: Western blot, total PARP, PC9 cells; type: cell-based, human; details: PC9, 24 h, gefitinib 0.5 μM, Ab1; Ctrl = 100
Procedure: as §10, §11

PARP cleaved = experiment: Western blot, cleaved (truncated) PARP, PC9 cells; type: cell-based, human; details: PC9, 24 h, gefitinib 0.5 μM, Ab1 (FIG. 21)
Procedure: as §10, §11

Notch3 = experiment: Western blot, Notch3, PC9 cells; type: cell-based, human; details: PC9, 24 h, gefitinib 0.5 μM, Ab1; Ctrl = 100
Procedure: as §10, §11

AXL = experiment: Western blot, AXL, PC9 cells; type: cell-based, human; details: PC9, 24 h, gefitinib 0.5 μM, Ab1; Ctrl = 100
Procedure: as §10, §11

[9] = PC9, 2 h, AZD9291 0.2 μM, Ab1, Ctrl = 100
[10] = PC9, 0% FBS, EGF-induced, 2 h, erlotinib 1 μM, Ab 1/2 dilution, Control = 100
[11] = PC9, 2 h, erlotinib 1 μM, anti-EGF, nonstandard conditions and serum starvation (FIG. 13, 14)
[12] = PC9, 24 h serum starvation and drug treatment, gefitinib 0.5 μM, Ab 1/2, Control = 100
[13] = PC9, serum-starved, EGF, 15 min, gefitinib 40 nM, antibody 1/20 to 1/5 (FIG. 6)

In the case of `C=CC(=O)Nc1cc(Nc2nccc(-c3cn(C)c4ccccc34)n2)c(OC)cc1N(C)CCN(C)C` [AZD9291], the IC50 (PC9 cells) is reported as “in the nM range”, the pSTAT3 (pSTAT-3 [1]; [9]) is reported as 146.6 and the pSTAT3 (pSTAT-3 [2]; PC9-GR4, 2 h) is reported as 60. The STAT3 (pSTAT-3 [2]; PC9-GR4, 24 h) was 847.5, the “pErk ½” value (p-ERK1/2 [3]; [9]) was 3.7 and the pEGFR (p-EGFR [4]; [9]) was 76.3. The pEGFR (p-EGFR [5]; PC9-GR4, 2 h) was 2.5, the EGFR (p-EGFR [5]; PC9-GR4, 24 h) was 138.6 and the “sensitivity of cell lines” value (PC9-GR1 and GR4) was “sensitive”. The pAkt (p-Akt [6]; PC9-GR4, 2 h) was 42.7, the Akt (p-Akt [6]; PC9-GR4, 24 h) was 26.8 and the “pErk ½” value (p-ERK1/2 [7]; PC9-GR4, 2 h) was 53.6. For the same compound, the “Erk ½” value (p-ERK1/2 [7]; PC9-GR4, 24 h) was 20.5 and the pAkt (p-Akt [8]; [9]) was 2.9.

In the case of `C#Cc1cccc(Nc2ncnc3cc(OCCOC)c(OCCOC)cc23)c1` [Erlotinib, N-(3-ethynylphenyl)-6,7-bis(2-methoxyethoxy)-4-quinazolinamine], the STAT-3 (pSTAT-3 [1]; [10]) is reported as 130, the “effect on STAT3 activation” value (pSTAT-3 [1]; [11]) is reported as “activated” and the ERK (p-ERK1/2 [3]; [10]) is reported as 0. For the same compound, the “effect on Erk activation” value (p-ERK1/2 [3]; [11]) was “inactivated”, the EGFR (p-EGFR [4]; [10]) was 14.3 and the IC50 (PC9-ER and GR1 to GR5) was 5 to 10 µM. For the same compound, the Akt (p-Akt [8]; [10]) was 0.

With `COc1cc2ncnc(Nc3ccc(F)c(Cl)c3)c2cc1OCCCN1CCOCC1` [Gefitinib] the Notch3 truncated (Notch3 truncated) was 98.9, the Bmi1 (Bmi1) was 100.1 and the “p YAP (Ser 397)” value (pYAP) was 137.6. For the same compound, the pSTAT3 (pSTAT-3 [1]; [12]) was 569.2, the “effect on STAT-3 activation” value (pSTAT-3 [1]; PC9, nonstandard conditions (not serum-starved, 10% FBS, no EGF), 2 h, gefitinib 0.5 μM, anti-EGF 1/2 (FIG. 8)) was “activated” and the “effect on STAT3 activation” value (pSTAT-3 [1]; PC9, serum starvation, EGF induction, 2 h, gefitinib 0.5 μM, anti-EGF 1/2 (FIG. 2, FIG. 9)) was “activated”. For the same compound, the “effect on STAT3 phosphorylation” value (pSTAT-3 [1]; [13]) was “activated”, the “effect on Erk activation” value (p-ERK1/2 [3]) was “inactivated” and the “effect on Erk phosphorylation” value (p-ERK1/2 [3]) was “inhibited”. It also gave a pERK (p-ERK1/2 [3]) of 8.1, a Hes1 (HES1) of 86.5 and a PARP total (PARP) of 110. The PARP cleavage (PARP cleaved) was “able to induce it”, the Notch3 (Notch3) was 120.8 and the pAkt (p-Akt [8]; [12]) was 72.6. The “effect on Akt phosphorylation” value (p-Akt [8]; [13]) was “inhibited” and the AXL (AXL) was 135.4.

In the case of `COc1cc2c(Oc3ccc(NC(=O)C4(C(=O)Nc5ccc(F)cc5)CC4)cc3F)ccnc2cc1OCCCN1CCOCC1` [foretinib], the IC50 (PC9 cells) is reported as “in the nM range”.
